Measured values from US11851440B2, “Modulators of eukaryotic initiation factor 2B, compositions and methods” (Denali Therapeutics Inc., priority 2017, dated 2023).
pIC50: −log10 of the molar value.

What follows are molecules tested on ISR pathway (ATF4 translation) (assay: ATF4 Nano Luciferase reporter integrated stress response (ISR) assay in H4 ATF4-NLuc cells). Details: Homo sapiens, H4 ATF4-NLuc (clone 17) cells; compound 30 minutes, then 50 um sodium arsenite for 6 hours; luminescence readout.

In order of falling pIC50:
1. O=C(COc1ccc(Cl)c(F)c1)NC12CC(c3nnc([C@H]4C[C@@H](OC(F)F)C4)o3)(C1)C2 [Example 51]  7.86
2. O=C(COc1ccc(Cl)c(F)c1)NC12CC(c3nnc(C4CN(CC(F)(F)F)C4)o3)(C1)C2 [Example 15, 2-(4-chloro-3-fluoro-phenoxy)-N-[1-[5-[1-(2,2,2-trifluoroethyl)azetidin-3-yl]-1,3,4-oxadiazol-2-yl]-3-bicyclo[1.1.1]pentanyl]acetamide]  7.77

Same assay, conditions: Homo sapiens, read-out: Activity (IC50), H4 ATF4-NLuc (clone 17) cells; compound 30 minutes, then 50 um sodium arsenite for 6 hours; luminescence readout

`O=C(COc1ccc(Cl)c(F)c1)NC12CC(c3nnc(CC4CC4)o3)(C1)C2` [Example 11, 2-(4-chloro-3-fluoro-phenoxy)-N-[1-[5-(cyclopropylmethyl)-1,3,4-oxadiazol-2-yl]-3-bicyclo[1.1.1]pentanyl]acetamide] and `O=C(COc1ccc(Cl)c(F)c1)NC12CC(c3nnc(CC4CCC4)o3)(C1)C2` [Example 38, 2-(4-chloro-3-fluoro-phenoxy)-N-[1-[5-(cyclobutylmethyl)-1,3,4-oxadiazol-2-yl]-3-bicyclo[1.1.1]pentanyl]acetamide] cannot be ordered by pIC50: greater than 6.00 for the first, greater than 6.00 for the second.

`O=C(CO[C@H]1C[C@@H](OC(F)(F)F)C1)NC12CC(c3nnc(-c4ccc(Cl)c(F)c4)o3)(C1)C2` [Example 12, N-[3-[5-(4-chloro-3-fluoro-phenyl)-1,3,4-oxadiazol-2-yl]-1-bicyclo[1.1.1]pentanyl]-2-[cis-3-(trifluoromethoxy)cyclobutoxy]acetamide] and `O=C(CO[C@H]1C[C@@H](OC(F)(F)F)C1)NC12CC(c3nnc(COc4ccc(Cl)c(F)c4)o3)(C1)C2` [Example 41, N-[1-[5-[(4-chloro-3-fluoro-phenoxy)methyl]-1,3,4-oxadiazol-2-yl]-3-bicyclo[1.1.1]pentanyl]-2-cis-[3-(trifluoromethoxy)cyclobutoxy]acetamide] cannot be ordered by pIC50: greater than 6.00 for the first, greater than 6.00 for the second.

`CC(C)(C)OC(=O)N1CC(c2nnc(C34CC(NC(=O)COc5ccc(Cl)c(F)c5)(C3)C4)o2)C1` [Example 13, tert-Butyl 3-[5-[3-[[2-(4-chloro-3-fluoro-phenoxy)acetyl]amino]-1-bicyclo[1.1.1]pentanyl]-1,3,4-oxadiazol-2-yl]azetidine-1-carboxylate] and `CC(C)(C)OC(=O)N1CCC(c2nnc(C34CC(NC(=O)COc5ccc(Cl)c(F)c5)(C3)C4)o2)C1` (centres unmarked) [Example 14, tert-butyl 3-[5-[3-[[2-(4-chloro-3-fluoro-phenoxy)acetyl]amino]-1-bicyclo[1.1.1]pentanyl]-1,3,4-oxadiazol-2-yl]pyrrolidine-1-carboxylate] cannot be ordered by pIC50: greater than 6.00 for the first, greater than 6.00 for the second.

`O=C(COc1ccc(Cl)c(F)c1)NC12CC(c3nnc(C4CN(CC(F)(F)F)C4)o3)(C1)C2` [Example 15, 2-(4-chloro-3-fluoro-phenoxy)-N-[1-[5-[1-(2,2,2-trifluoroethyl)azetidin-3-yl]-1,3,4-oxadiazol-2-yl]-3-bicyclo[1.1.1]pentanyl]acetamide] and `O=C(COc1ccc(Cl)c(F)c1)NC12CC(c3nnc(C4CCN(CC(F)(F)F)C4)o3)(C1)C2` (centres unmarked) [Example 16, 2-(4-chloro-3-fluoro-phenoxy)-N-[1-[5-[1-(2,2,2-trifluoroethyl)pyrrolidin-3-yl]-1,3,4-oxadiazol-2-yl]-3-bicyclo[1.1.1]pentanyl]acetamide] cannot be ordered by pIC50: greater than 6.00 for the first, greater than 6.00 for the second.

`O=C(COc1ccc(Cl)c(F)c1)NC12CC(c3nnc(C4CC4)o3)(C1)C2` [Example 17, 2-(4-chloro-3-fluoro-phenoxy)-N-[3-(5-cyclopropyl-1,3,4-oxadiazol-2-yl)-1-bicyclo[1.1.1]pentanyl]acetamide] and `O=C(COc1ccc(Cl)c(F)c1)NC12CC(c3nnc(C4CCC4)o3)(C1)C2` [Example 25, 2-(4-chloro-3-fluoro-phenoxy)-N-[1-(5-cyclobutyl-1,3,4-oxadiazol-2-yl)-3-bicyclo[1.1.1]pentanyl]acetamide] cannot be ordered by pIC50: greater than 6.00 for the first, greater than 6.00 for the second.

`O=C(COc1ccc(Cl)c(F)c1)NC12CC(c3nnc(C4CC4(F)F)o3)(C1)C2` (centres unmarked) [Example 18, 2-(4-chloro-3-fluoro-phenoxy)-N-[3-[5-(2,2-difluorocyclopropyl)-1,3,4-oxadiazol-2-yl]-1-bicyclo[1.1.1]pentanyl]acetamide] and `O=C(COc1ccc(Cl)c(F)c1)NC12CC(c3nnc([C@H]4C[C@@H](C(F)(F)F)C4)o3)(C1)C2` [Example 43, 2-(4-chloro-3-fluorophenoxy)-N-(3-(5-((cis)-3-(trifluoromethyl)cyclobutyl)-1,3,4-oxadiazol-2-yl)bicyclo[1.1.1]pentan-1-yl)acetamide] cannot be ordered by pIC50: greater than 6.00 for the first, greater than 6.00 for the second.

`O=C(COc1ccc(Cl)c(F)c1)NC12CC(C3=NOC(C4CCCC4)C3)(C1)C2` (centres unmarked) [Example 21, 2-(4-chloro-3-fluorophenoxy)-N-(3-(5-cyclopentyl-4,5-dihydroisoxazol-3-yl)bicyclo[1.1.1]pentan-1-yl)acetamide] and `O=C(COc1ccc(Cl)c(F)c1)NC12CC(C3=NOC(C4CCC4)C3)(C1)C2` (centres unmarked) [Example 23, 2-(4-chloro-3-fluorophenoxy)-N-(3-(5-cyclobutyl-4,5-dihydroisoxazol-3-yl)bicyclo[1.1.1]pentan-1-yl)acetamide] cannot be ordered by pIC50: greater than 6.00 for the first, greater than 6.00 for the second.

`O=C(COc1ccc(Cl)c(F)c1)NC12CC(c3cc(C4CCCC4)on3)(C1)C2` [Example 22, 2-(4-chloro-3-fluorophenoxy)-N-(3-(5-cyclopentylisoxazol-3-yl)bicyclo[1.1.1]pentan-1-yl)acetamide] and `O=C(COc1ccc(Cl)c(F)c1)NC12CC(c3cc(C4CCC4)on3)(C1)C2` [Example 24, 2-(4-chloro-3-fluorophenoxy)-N-(3-(5-cyclobutylisoxazol-3-yl)bicyclo[1.1.1]pentan-1-yl)acetamide] cannot be ordered by pIC50: greater than 6.00 for the first, greater than 6.00 for the second.

`O=C(COc1ccc(Cl)c(F)c1)NC12CC(c3cc(C4CCC4)no3)(C1)C2` [Example 26, 2-(4-Chloro-3-fluorophenoxy)-N-(3-(3-cyclobutylisoxazol-5-yl)bicyclo[1.1.1]pentan-1-yl)acetamide] and `O=C(COc1ccc(Cl)c(F)c1)NC12CC(c3nc(C4CCC4)co3)(C1)C2` [Example 27, 2-(4-chloro-3-fluoro-phenoxy)-N-[1-(4-cyclobutyloxazol-2-yl)-3-bicyclo[1.1.1]pentanyl]acetamide] cannot be ordered by pIC50: greater than 6.00 for the first, greater than 6.00 for the second.

Compared with `O=C(COC1CCC1)NC12CC(c3cn(-c4ccc(Cl)cc4)nn3)(C1)C2` [Example 28, N-[1-[1-(4-Chlorophenyl)triazol-4-yl]-3-bicyclo[1.1.1]pentanyl]-2-(cyclobutoxy)acetamide], `O=C(COC1CCC1)NC12CC(c3nnc(-c4ccc(Cl)c(F)c4)o3)(C1)C2` [Example 42, N-[1-[5-(4-chloro-3-fluoro-phenyl)-1,3,4-oxadiazol-2-yl]-3-bicyclo[1.1.1]pentanyl]-2-(cyclobutoxy)acetamide] is lower in pIC50: greater than 6.00 for the first, 5.00 to 6.00 for the second.

`N#CC1CC(c2nnc(C34CC(NC(=O)COc5ccc(Cl)c(F)c5)(C3)C4)o2)C1` (centres unmarked) [Example 29, 2-(4-chloro-3-fluoro-phenoxy)-N-[1-[5-(3-cyanocyclobutyl)-1,3,4-oxadiazol-2-yl]-3-bicyclo[1.1.1]pentanyl]acetamide] and `O=C(COc1ccc(Cl)c(F)c1)NC12CC(c3nnc([C@H]4C[C@H](C(F)(F)F)C4)o3)(C1)C2` [Example 44, 2-(4-chloro-3-fluoro-phenoxy)-N-[1-[5-trans-[3-(trifluoromethyl)cyclobutyl]-1,3,4-oxadiazol-2-yl]-3-bicyclo[1.1.1]pentanyl]acetamide] cannot be ordered by pIC50: greater than 6.00 for the first, greater than 6.00 for the second.

Compared with `C#CC12CC(NC(=O)COc3ccc(Cl)c(F)c3)(C1)C2` [Example 31, 2-(4-chloro-3-fluorophenoxy)-N-(3-ethynylbicyclo[1.1.1]pentan-1-yl)acetamide], `O=C(COc1ccc(Cl)c(F)c1)NC12CC(c3c[nH]nn3)(C1)C2` [Example 32, N-(3-(1H-1,2,3-triazol-4-yl)bicyclo[1.1.1]pentan-1-yl)-2-(4-chloro-3-fluorophenoxy)acetamide] is higher in pIC50: 5.00 to 6.00 for the first, greater than 6.00 for the second.

`N#C[C@H]1C[C@H](n2ncc(C34CC(NC(=O)COc5ccc(Cl)c(F)c5)(C3)C4)n2)C1` [Example 33, 2-(4-chloro-3-fluorophenoxy)-N-(3-(2-((trans)-3-cyanocyclobutyl)-2H-1,2,3-triazol-4-yl)bicyclo[1.1.1]pentan-1-yl)acetamide] and `N#C[C@H]1C[C@H](n2cc(C34CC(NC(=O)COc5ccc(Cl)c(F)c5)(C3)C4)nn2)C1` [Example 34, 2-(4-chloro-3-fluorophenoxy)-N-(3-(1-((trans)-3-cyanocyclobutyl)-1H-1,2,3-triazol-4-yl)bicyclo[1.1.1]pentan-1-yl)acetamide] cannot be ordered by pIC50: greater than 6.00 for the first, greater than 6.00 for the second.

First: O=C(COC1CCC1)NC12CC(c3nnc(COc4ccc(Cl)c(F)c4)[nH]3)(C1)C2 [Example 37, N-(3-(5-((4-chloro-3-fluorophenoxy)methyl)-4H-1,2,4-triazol-3-yl)bicyclo[1.1.1]pentan-1-yl)-2-cyclobutoxyacetamide]
Second: O=C(COC1CCC1)NC12CC(c3nnc(COc4ccc(Cl)c(F)c4)o3)(C1)C2 [Example 46]
The pIC50 of the first is lower: 5.00 to 6.00 for the first, greater than 6.00 for the second. The second is the more potent here.

`O=C(COc1ccc(Cl)c(F)c1)NC12CC(n3cnc(C4CCC4)c3)(C1)C2` [Example 39, 2-(4-chloro-3-fluoro-phenoxy)-N-[3-(4-cyclobutylimidazol-1-yl)-1-bicyclo[1.1.1]pentanyl]acetamide] and `O=C(COc1ccc(Cl)c(F)c1)NC12CC(n3cnc(CC4CCC4)c3)(C1)C2` [Example 48] cannot be ordered by pIC50: greater than 6.00 for the first, greater than 6.00 for the second.

`Cc1nnc(C23CC(NC(=O)COc4ccc(Cl)c(F)c4)(C2)C3)o1` [Example 40, 2-(4-chloro-3-fluoro-phenoxy)-N-[1-(5-methyl-1,3,4-oxadiazol-2-yl)-3-bicyclo[1.1.1]pentanyl]acetamide] and `O=C(COc1ccc(Cl)c(F)c1)NC12CC(c3nnc(COC(F)(F)F)o3)(C1)C2` [Example 45, 2-(4-chloro-3-fluoro-phenoxy)-N-[1-[5-(trifluoromethoxymethyl)-1,3,4-oxadiazol-2-yl]-3-bicyclo[1.1.1]pentanyl]acetamide] cannot be ordered by pIC50: greater than 6.00 for the first, greater than 6.00 for the second.

`O=C(COc1ccc(Cl)c(F)c1)NC12CC(c3ncc(C4CCC4)o3)(C1)C2` [Example 47] and `O=C(COc1ccc(Cl)c(F)c1)NC12CC(c3nnc([C@H]4C[C@@H](OC(F)F)C4)o3)(C1)C2` [Example 51] cannot be ordered by pIC50: greater than 6.00 for the first, greater than 6.00 for the second.

`O=C(CO[C@H]1C[C@@H](OC(F)(F)F)C1)NC12CC(c3nnc([C@H]4C[C@@H](OC(F)(F)F)C4)o3)(C1)C2` [Example 50] and `O=C(CO[C@H]1C[C@@H](OC(F)(F)F)C1)NC12CC(n3cnc(C4CC(OC(F)(F)F)C4)c3)(C1)C2` (some centres unmarked) [Example 52] cannot be ordered by pIC50: greater than 6.00 for the first, greater than 6.00 for the second.
